# Assay results: a melting point compilation (Tetko et al.; mined from patent text by program, amines drawn as free bases though some values may be those of a salt)
row,melting point,Compound
1,95 to 97 °C,CCC(Oc1ccccc1C#N)C(=O)OC1CC(O)C=C2C=CC(C)C(CCC3CC(O)CC(=O)O3)C21 (mixture of isomers)
2,122 to 123 °C,N#Cc1ccc(-c2cccc(C=O)c2)cc1
3,98 to 100 °C,O=c1oc(C(F)(F)F)ccc1-c1ccc(F)cc1F
4,103 to 105 °C,CCOC(=O)c1c(C)cc2nc(CSC(C)=O)n(-c3ccccc3Cl)c(=O)c2c1C
5,124 to 125 °C,CC1=C(C(=O)OCOC(=O)C(C)(C)C)C(c2cccc([N+](=O)[O-])c2)C(C(=O)OCOC(=O)C(C)(C)C)=C(C)N1
6,128 to 129 °C,CSc1cc(-c2ccc(C(F)(F)F)cc2)ccc1C#N
7,179 °C,COc1ccc(CCN(C)CCc2ccc(NC(=O)c3cccc4c(=O)c5ccccc5[nH]c34)cc2)cc1
8,127 to 129 °C,Clc1cccc(N2CCN(CCCOc3ccc4scnc4c3)CC2)c1Cl
9,159 to 161 °C,COc1c(C)c(C)c(NC(=O)OC(C)(C)C)c(C)c1Br
10,237 to 239 °C,O=C(NC(=O)c1c(F)cccc1F)Nc1cc(Cl)c(Oc2ccc(Cl)c3ccccc23)c(Cl)c1
11,141 to 142 °C,CSc1nccc(-c2cn(Cc3ccccc3C#N)c(=O)n2-c2ccc(F)cc2)n1
12,60 to 62 °C,O=C(CCC1CCCCCCCCCCC1)C1=C(O)CSC1=O
13,58 to 62.6 °C,O=[N+]([O-])c1cc(OC2CCCC2)c(Cl)cc1F
14,104 to 105 °C,Cc1ccsc1C1CC(=O)c2c(C)ccnc2C1 (centres undefined)
15,278 to 280 °C,Nc1nc2cc(S(=O)(=O)c3ccccc3)ccc2s1
16,175 to 177 °C,COc1ccc(C(=O)NCCCCn2cnc3c(N)nc4ccccc4c32)c(OC)n1
17,175 to 177 °C,O=Nc1c(-c2ccccc2)nc2sccn12
18,153 to 155 °C,CCn1c(=O)c2c(nc(/C=C/c3cccc(OC)c3)n2C)n(CC)c1=O
19,255 to 257 °C,CC=CCNc1cc(C(=O)O)cc(S(N)(=O)=O)c1Oc1ccc(NC(C)=O)cc1
20,156 °C,CC(=O)Nc1ccc2c(c1)CCC(CO)O2 (centres undefined)
21,76 to 77 °C,Cc1ccc(OC(=O)N2CCC[C@H]2C(=O)O)cc1
22,178 to 180 °C,COc1cc(C(F)(F)F)sc1CN1C(=O)C2(COc3cc4c(cc32)OCO4)c2ccccc21 (centres undefined)
23,158 °C,Cc1cc(C)c2cccc(OCc3c(Cl)ccc(S(=O)(=O)N4CCC[C@H]4C(=O)NCCCN(C)C(=O)c4ccc(C=NN)cc4)c3Cl)c2n1

row,melting point,Compound
1,209 to 210 °C,CCCCc1ccc(-c2cc(C(=O)O)cc(-c3ccc(Cl)cc3)n2)cc1
2,113 to 115 °C,CCOC(=O)c1ccc(N)cc1O
3,216 to 218 °C,CC1CCc2c(N3CCN(Cc4ccc(N)cc4)CC3)c(F)cc3c(=O)c(C(=O)O)cn1c23 (centres undefined)
4,265 °C,COc1cc(-c2ccc(Cl)cc2)nc2c(C(=O)Nc3cccc(S(C)(=O)=O)c3)cnn12
5,192 to 195 °C,Cc1c(NC(=O)c2ccc(-c3ccc(F)cc3)cc2)ccc2cc(C(c3ccccc3)N3CCCC3)cnc12 (centres undefined)
6,145 to 148 °C,CCN(CC)Cc1cnc2cc(NC(=O)c3ccc(-c4ccc(F)cc4)cc3)c(C)cc2c1
7,184 to 187 °C,CC1(C)OC(=O)Nc2ccc(-c3cc(CC#N)ccc3F)cc21
8,259 to 260 °C,COc1cc2c(cc1OC)C1NC(=O)CCC1=C2c1ccccc1 (centres undefined)
9,228 to 230 °C,Cn1c2cc3ccccc3nc2c2c(Cl)cccc21
10,176 to 178 °C,COc1ccc(NC(=O)N(Cc2ccccn2)Cc2ccc(F)cc2F)c(NC(=O)c2cc(C(C)(C)C)c(O)c(C(C)(C)C)c2)c1
11,158 to 161 °C,O=C(Nc1ccc(Oc2ccc(Cl)cc2)cc1)N1CC(c2ccccc2)=C(c2ccc(Cl)cc2)N1
12,97 to 98 °C,CC1Cc2cccc(S(=O)(=O)NC(C)(C)C)c2S1 (centres undefined)
13,150 to 157 °C,CC(=O)SCCC(=O)OC(=O)CO
14,177 to 178 °C,CCOC(=O)C(=C1NCCCN1OC)[N+](=O)[O-]
15,208 to 213 °C,COc1ccc2c(c1)c1c3c(c(-c4ccccc4Cl)cc1n2CCC(=O)NS(=O)(=O)CCN(C)C)C(=O)NC3=O
16,177 to 178 °C,COC(=O)C(=CN(C)C)N(C)c1nc(-c2ccc(Cl)cc2)cs1
17,148 to 151 °C,O=c1cc2c(nn1-c1ccc(Cl)cc1)-c1cc(Br)sc1SCC2
18,76 °C,CC1(OC(=O)C#CC2C(C(=O)OC(C#N)c3cccc(Oc4ccccc4)c3)C2(C)C)CCC1 (centres undefined)
19,167 to 169 °C,O=C1N(Cc2ccc(C(F)(F)F)o2)c2cccc(-c3ccoc3)c2C12COc1cc3c(cc12)CCO3 (centres undefined)
20,113 to 114 °C,O=C(NCCCCCCOC(=O)N1CCC2(CCCC2)CC1)OC1CCN(C(=O)Oc2ccc([N+](=O)[O-])cc2)CC1
21,> 300 °C,O=C1C(=O)c2c(nc3cc(Cl)ccn23)-c2ccccc21
22,158 to 160 °C,COc1ccc(C=CC(=O)Nc2ccc(C(C)(C)C)cc2)cc1
23,104 °C,CNC(=O)c1cc(-c2ccc(OC)cc2)nn(CC=C(C)C)c1=O

row,melting point,Compound
1,184 to 185 °C,Cc1cc(Oc2ccc(N)cc2)c2ncccc2c1
2,197 to 200 °C,Cc1nccn1-c1cccc(OS(N)(=O)=O)c1
3,142 to 144 °C,Cc1cccc(C)c1NC(=O)CCSc1cc(C(C)(C)C)c(O)c(C(C)(C)C)c1
4,142 to 143 °C,Cc1ccc(C#N)cc1C#N
5,79 °C,CCOC(=O)c1c(Cl)nc2cscc2c1Cl
6,190 to 191 °C,Nc1c(Cl)cc(C(O)CNCCCCCCOCCCc2ccc(C(=O)O)cc2)cc1Cl (centres undefined)
7,68 to 70 °C,CCCCCCCCCCCCCCCCCC(=O)Oc1ccc([N+](=O)[O-])cc1OC(=O)CCCCCCCCCCCCCCCCC
8,88 °C,NCC1CCN(Cc2ccccc2)CC1
9,111 to 115 °C,COC(=O)CSC(c1ccccc1)(c1ccccc1)c1ccccc1
10,144 to 146 °C,O=C(O)CCCCC(=O)NCc1ccc2c(c1)C(=O)N(C1CCC(=O)NC1=O)C2=O (centres undefined)
11,260 °C,O=C(O)C(=O)c1ccc(OCCOc2ccc3ccncc3c2)cc1
12,238 to 240 °C,COc1cc(C=CC(=O)Nc2cnc3ccc(C)cc3c2-c2ccccc2Br)cc(OC)c1OC(C)=O
13,186 to 191 °C,CCN(CC)c1ccc(-n2c(CC(=O)O)c(C(=O)O)c3cc(Oc4cccc(Cl)c4)ccc32)cc1
14,176 to 177 °C,CN1C(O)=C(C(=O)NCc2ccccc2)c2ccsc2S1(=O)=O
15,> 320 °C,FC(F)(F)c1ccc2cc3[nH]c(=S)[nH]c3nc2c1
16,184 to 185 °C,N#CC1=C(n2cccc2)Oc2c(ccc3ccccc23)C1c1cccc([N+](=O)[O-])c1 (centres undefined)
17,67 to 68 °C,C[Si](C)(C)Sc1nnnn1-c1ccccc1
18,123 to 124 °C,COC(=O)c1cc(OC)c(C(=O)O)cc1OC
19,139 to 140 °C,COC(=O)c1cc(F)c(N2CCC(N)C2)nc1Nc1ccc(F)cc1F (centres undefined)
20,54 °C,COc1ccc(CN(CCN(C)CCCN=C(NC#N)NCCSCc2csc(NC(=N)N)n2)c2ccccn2)cc1
21,88 °C,CC(C)(C)C(=O)SC/C(=C/c1ccccc1)C(=O)O
22,202 to 204 °C,N[C@H]1CC[C@@H](C(=O)N2CCC(c3[nH]nc4c3C(=O)c3c(NC(=O)NN5CCOCC5)cccc3-4)CC2)CC1
23,128 to 129 °C,CS(=O)(=O)c1ccc(-c2ccccc2NC(=N)N2CCCCC2)cc1

row,melting point,Compound
1,144 °C,OCc1ccc(Cn2c(CC3CCN(Cc4ccccc4)CC3)nc3ccccc32)o1
2,125 to 128 °C,Cc1nc(NCc2ccc(C)o2)c2nc(-c3ccccc3)cc-2[nH]1
3,219 to 221 °C,CCn1cc(C(=O)O)c(=O)c2cc(F)c(N3CCN(c4ncccn4)C(C)C3)c(OC(F)F)c21 (centres undefined)
4,283 to 284 °C,CCn1cc(C(=O)O)c(=O)c2cc(F)c(N3CCC(NC(C)=O)C3)nc21 (centres undefined)
5,48 to 49 °C,Clc1ccc(OCc2ccc(Cl)s2)cc1
6,216 to 218 °C,COc1cc(C(=O)O)ccc1Cn1cc(CCC(=O)N(C)C)c2ccc(CCC(=O)N(C)C)cc21
7,150 °C,COC(=O)c1c(-c2ccccc2)oc2c(CCl)cccc2c1=O
8,195 to 198 °C,O=C1NCCc2c(O)cccc21
9,112 to 113 °C,COc1ccc(-n2nc(OC)cc2-c2ccc(C#N)cc2)cc1
10,229 to 231 °C,O=C(O)C1=Cc2c(ccc(Cl)c2-c2ccccc2)OC1C(F)(F)F (centres undefined)
11,95 to 118 °C,CC12CC(F)C3c4ccc(O)cc4CC(CCCCCN4CCCC4)C3C1CCC2O (centres undefined)
12,250 to 251 °C,NC(=O)CNc1ncccc1[N+](=O)[O-]
13,110 to 111 °C,Cc1cccc(-c2nc(CCOc3ccc(/C=C/C=O)cc3)c(C)o2)c1
14,183 to 184 °C,C1=Cc2ccccc2NN=C1
15,99 to 102 °C,COc1ccc2[nH]c(S(=O)Cc3cc(N(C)C)c(F)cn3)nc2c1 (centres undefined)
16,133 to 134 °C,COCOc1cc(C(=O)O)n(Cc2ccc(C(F)(F)F)cc2Cl)n1
17,97 °C,CN(C)C=C(C=O)c1ccc(C(F)(F)F)cc1
18,132 to 134 °C,Cc1ccc(N2CCSC2N)c([N+](=O)[O-])c1 (centres undefined)
19,132 to 134 °C,Cn1ccnc1S(=O)c1ccccc1Cl (centres undefined)
20,170 °C,CCOC(=O)C1=C(C)NC(N)=C(C(=O)OCC)C1c1ccccc1OC (centres undefined)
21,110 to 112 °C,CN(CCCN=C(NC#N)NCCSCc1csc(NC(=N)N)n1)CCC(c1ccccc1)c1ccccn1 (centres undefined)
22,127 to 129 °C,C=C1CCc2c(c3ccccc3n2C)C1=O
23,254 to 255 °C,CCCc1ccc(S(=O)(=O)Nc2ccc3snc(NC(C)=O)c3c2)cc1

row,Compound,melting point
1,O=[N+]([O-])N=C(NCc1cnc(Cl)s1)NCc1cnc(Cl)s1,217 to 218 °C
2,COc1ccc2c(c1OC)CCCC2c1c[nH]cn1 (centres undefined),160 °C
3,Cc1cc(COP(N)(=O)N(CCCl)CCCl)ccc1[N+](=O)[O-] (centres undefined),64 to 66 °C
4,COc1c(F)ccc2c1C(=O)N1CC[C@H]1c1c(-c3noc(CN)n3)ncn1-2,196 to 198 °C
5,COc1cc2c(cc1OC)N(Cc1ccccc1)C(=O)CN=C2c1cccc(C(F)(F)F)c1,175 to 178 °C
6,CN1C(=O)N(C)P(C)(=S)C1=O (centres undefined),95 °C
7,CC12CCC(=O)C=C1CCC1C2C(F)CC2(C)C(O)CCC12 (centres undefined),161 to 162 °C
